target: alanyl aminopeptidases (APN) (Homo sapiens, UniProt P15144); assay: Inhibition of alanyl aminopeptidase enzymatic activity, fluorogenic substrate (Ala)2-rhodamine 110; assay type: biochemical; conditions: Table 8, starred values = ID50; read-out: ID50 APN (values marked with *)
Procedure: The inhibition characteristics measured are referred to as IC-50 values or ID50 values (the latter marked with “*”) for said enzyme. The enzymatic activity was determined by means of the fluorogenic substrate/product (Ala)2-rhodamine 110.

Sequence of alanyl aminopeptidases (APN) (P15144 whole entry, species assumed): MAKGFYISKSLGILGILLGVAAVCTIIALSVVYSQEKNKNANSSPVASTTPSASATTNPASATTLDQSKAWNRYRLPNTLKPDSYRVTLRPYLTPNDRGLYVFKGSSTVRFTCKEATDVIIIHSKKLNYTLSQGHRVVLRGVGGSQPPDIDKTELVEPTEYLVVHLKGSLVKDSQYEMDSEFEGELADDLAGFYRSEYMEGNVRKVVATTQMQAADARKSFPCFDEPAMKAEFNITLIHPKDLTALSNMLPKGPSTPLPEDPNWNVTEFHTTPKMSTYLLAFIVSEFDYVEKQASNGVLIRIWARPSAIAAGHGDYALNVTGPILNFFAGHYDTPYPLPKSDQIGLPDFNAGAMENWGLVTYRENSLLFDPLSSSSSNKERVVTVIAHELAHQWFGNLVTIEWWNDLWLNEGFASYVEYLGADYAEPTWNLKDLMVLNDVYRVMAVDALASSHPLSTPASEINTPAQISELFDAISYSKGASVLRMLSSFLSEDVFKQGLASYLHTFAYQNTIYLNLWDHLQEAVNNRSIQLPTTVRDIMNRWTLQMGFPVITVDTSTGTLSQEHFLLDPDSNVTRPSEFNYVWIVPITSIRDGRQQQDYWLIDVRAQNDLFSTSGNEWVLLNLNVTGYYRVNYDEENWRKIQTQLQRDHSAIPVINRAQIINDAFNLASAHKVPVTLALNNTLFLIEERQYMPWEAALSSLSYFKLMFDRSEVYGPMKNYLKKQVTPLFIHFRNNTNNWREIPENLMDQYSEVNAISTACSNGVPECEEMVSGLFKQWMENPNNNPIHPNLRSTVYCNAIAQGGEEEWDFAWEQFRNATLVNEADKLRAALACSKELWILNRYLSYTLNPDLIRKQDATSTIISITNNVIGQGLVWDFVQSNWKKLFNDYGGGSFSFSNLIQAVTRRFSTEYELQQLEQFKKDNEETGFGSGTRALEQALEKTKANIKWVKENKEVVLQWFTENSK

Compound | IC50
Cn1c(=O)c2c(ncn2CC(=O)N/N=C/C=C\c2ccco2)n(C)c1=O [A8.037] | 79.8 µM
Cc1cccc[n+]1OC(=O)N1CCCCC1 [A8.038] | 96.7 µM
CCCC1NC(=S)N(c2ccccc2)C1=O (centres unmarked) [A8.040] | 154 µM
COc1ccc(C2C(C(=O)c3ccccc3)C(c3ccccc3)C(C(=O)NCc3ccc(F)cc3)N2C(=O)NC2CCCCC2)cc1 (centres unmarked) [A8.041] | 231 µM

same assay, conditions: Table 8, unstarred values; read-out: IC50APN

Compound | IC50
O=C1C(Cc2ccc(O)cc2)NC(=S)N1c1ccccc1 (centres unmarked) [A8.035] | 66.6 µM
CC(=O)C1C(c2ccc(N(C)C)cc2)C2C(=O)N(C3CCCCC3)C(=O)N2C1c1sccc1C (centres unmarked) [A8.036] | 68 µM

same assay, conditions: Table 9, starred values = ID50; read-out: ID50 APN (values marked with *)

Compound | IC50
CC1=C(C#N)C(=O)N(CCO)C(=O)/C1=C\c1ccc(-c2cc(Cl)ccc2Cl)o1 [A9.002] | 1.2 µM
O=C1c2ccccc2-c2c1[n+]([O-])c1c([n+]2[O-])CCCC1 [A9.003] | 2 µM
CCOC(=O)c1ccc(-c2ccc(/C=C3\C(=O)N(CCO)C(=O)C(C#N)=C3C)o2)cc1 [A9.005] | 2.7 µM
CCCCOC(=O)c1cccc(-c2ccc(/C=C3\C(=O)N(CCO)C(=O)C(C#N)=C3C)o2)c1 [A9.021] | 10.2 µM

same assay, conditions: Table 9, unstarred values

Compound | IC50APN
COC(=O)C1=C(N)N2C(=O)CSC2=C(C(=O)OC)C1 [A9.001] | ‘very high ac- tive’, beyond measure

same assay, conditions: Table 9, unstarred values; read-out: IC50APN

Compound | IC50
COC(=O)C1=C(C(=O)OC)C(c2cc(Br)ccc2O)c2sc(O)nc2S1 (centres unmarked) [A9.006] | 4.7 µM
COc1ccc(/C=N/NC(=O)C2=C(C)Nc3ccccc3S2)cc1Cn1nc(C)c(Br)c1C [A9.007] | 4.8 µM
COC(=O)c1ccc(-c2ccc(/C=C3\C(=O)N(CCCO)C(=O)C(C#N)=C3C)o2)cc1 [A9.008] | 5 µM
CC1CCN(C(=O)/C(=C\c2ccco2)NC(=O)c2ccc(Cl)cc2)CC1 [A9.009] | 6.2 µM
COC(=O)c1cccc(-c2ccc(/C=C3\C(=O)N(CCO)C(=O)C(C#N)=C3C)o2)c1 [A9.010] | 6.3 µM
CCc1cccc(CC)c1NC(=S)N/N=C1\C(=O)N(CN2CC(C)CC(C)C2)c2ccccc21 (centres unmarked) [A9.011] | 6.7 µM
COC(=O)C1=C(N)N2C(=O)CSC2=C(C(=O)OC(C)C)C1 [A9.012] | 5.9 µM
CCOC(=O)N1CCc2c(sc(NC(=O)c3ccc(F)cc3)c2C(=O)Nc2ccc(Br)cc2)C1 [A9.013] | 7.3 µM
CC(=O)NC1OCC(O)C(O)C1O (centres unmarked) [A9.014] | 7.3 µM
COc1ccc(Cl)cc1C(=O)N/C(=C/c1ccco1)C(=O)N1CC2CC(C1)c1cccc(=O)n1C2 (centres unmarked) [A9.015] | 8.1 µM
c1coc(-c2nc3cc4ccccc4cc3nc2-c2ccco2)c1 [A9.016] | 8.9 µM
N#Cc1cc(N2CC3CC(C2)c2cccc(=O)n2C3)c([N+](=O)[O-])cc1C#N (centres unmarked) [A9.017] | 8.9 µM
COc1ccc2c(C)nc(Nc3nc(C)c4ccccc4c(=O)n3)nc2c1 [A9.018] | 8.9 µM
CC1=C(C#N)C(=O)N(CCCO)C(=O)/C1=C\c1ccc(-c2cc(C)c(C)cc2[N+](=O)[O-])o1 [A9.019] | 9.7 µM
Cc1ccc(/C=N\NC(=O)c2cnccn2)o1 [A9.020] | 9.8 µM
O=C(N/C(=C\c1ccco1)C(=O)N1CCCCC1)c1ccco1 [A9.022] | 10.6 µM
Cc1ccc(C(=O)N/C(=C\c2ccco2)C(=O)N2CC3CC(C2)c2cccc(=O)n2C3)cc1 (centres unmarked) [A9.023] | 11 µM
CN(C)CCCN1CCN(c2nc(N(C)CC(=O)O)c3ncn(Cc4ccc([N+](=O)[O-])cc4)c3n2)CC1 [A9.024] | 11.8 µM
Cc1[nH]c2ccccc2c1C(c1cc(Cl)ccc1O)N1CCOCC1 (centres unmarked) [A9.025] | 11.7 µM
Cc1ccc(C(=O)N/C(=C\c2ccco2)C(=O)N2CC3CC(C2)c2cccc(=O)n2C3)cc1C (centres unmarked) [A9.026] | 11.8 µM
CC(C)COc1ccc(C(=O)N/C(=C\c2ccco2)C(=O)N2CCOCC2)cc1 [A9.027] | 13.1 µM
O=C(O)c1cc2nc(-c3ccco3)cc(C(F)(F)Cl)n2n1 [A9.028] | 13.2 µM
O=C(N/C(=C\c1ccco1)C(=O)N1CCOCC1)c1ccco1 [A9.029] | 13.5 µM
O=C1C2=[N+]([O-])C3CCCCC3[N+]([O-])=C2c2ccccc21 (centres unmarked) [A9.030] | 13.7 µM
N/C(=N/OS(=O)(=O)c1ccc(C(F)(F)F)cc1)C1CSCCS1 (centres unmarked) [A9.031] | 13.4 µM
O=C(CCCCCN1C(=O)c2cccc3cccc(c23)C1=O)NO [A9.032] | 14.1 µM

Compound | IC50
COc1nncc(-c2cnnc(SC)n2)n1 [A9.033] | 14.3 µM
Clc1ccc(-n2cc3c(-c4ccco4)nnc(-c4nc5ccccc5s4)c3n2)cc1 [A9.034] | 14.3 µM
O=c1[nH]c(/C=C/c2ccco2)nc2ccccc12 [A9.035] | 14.6 µM
COC(=O)c1cc(-c2ccc(/C=C3\C(=O)N(CCCO)C(=O)C(C#N)=C3C)o2)ccc1Cl [A9.036] | 15.2 µM
CC1=C(C#N)C(=O)N(CCCO)C(=O)/C1=C\c1ccc(-c2ccc(Br)cc2)o1 [A9.037] | 16 µM
O=C(O)C1N=NC(c2ccc(F)cc2)=CN1O (centres unmarked) [A9.038] | 17.1 µM
C=CCOC(=O)c1cc(-c2ccc(/C=C3/C(=O)N(CCCO)C(=O)C(C#N)=C3C)o2)ccc1Cl [A9.040] | 18.1 µM
Cc1cc(=O)[nH]c(N/N=C/c2ccco2)n1 [A9.041] | 18.2 µM
CC(=O)c1cccc(-c2ccc(/C=C3/C(=O)N(CCCO)C(=O)C(C#N)=C3C)o2)c1 [A9.042] | 18.2 µM
O=C(N/C(=C\c1ccco1)C(=O)N1CCCC(CO)C1)c1ccccc1 (centres unmarked) [A9.043] | 19 µM
O=C(Cc1ccc([N+](=O)[O-])cc1)N1CCOCC1 [A9.044] | 19.1 µM
CO/N=C(\c1nonc1N)N1CCN(c2ccc([N+](=O)[O-])cc2Cl)CC1 [A9.045] | 19.2 µM
CN1C/C(=C/c2ccco2)C(=O)/C(=C/c2ccco2)C1 [A9.046] | 19.2 µM
CC1CCCCN1S(=O)(=O)c1ccc(NC(=O)/C=C/c2ccco2)cc1 (centres unmarked) [A9.047] | 19.9 µM
Cc1cc(C)n(-c2nnc(N)nn2)n1 [A9.048] | 20.3 µM
CCCN1C(=O)C(C#N)=C(C)/C(=C\c2ccc(-c3cccc(Cl)c3C)o2)C1=O [A9.049] | 20.8 µM
COc1ccc(C[C@@H](N)C(=O)N[C@H]2[C@H](O)[C@H](n3cnc4c(N(C)C)ncnc43)O[C@@H]2CO)cc1 [A9.050] | 20.9 µM
O=C(N/C(=C\c1ccco1)C(=O)N1CCC(O)CC1)c1ccccc1 [A9.051] | 21.1 µM
O=C(O)c1ccc(-n2c(/C=C/c3ccco3)nc3ccccc3c2=O)cc1 [A9.052] | 21.2 µM
CC1=C(C#N)C(O)=NC(=O)/C1=C/c1ccc(-c2ccc(Cl)c(C(=O)OC(C)C)c2)o1 [A9.053] | 21.3 µM
CN(C)c1c(Cl)cc(/C(=N/O)N2CCOCC2)cc1Cl [A9.054] | 21.4 µM
Cc1cccc(C)c1Nc1c(-c2ccccc2NC(=O)Nc2cccc(Cl)c2)nc2c(C(=O)NCC(C)C)cccn12 [A9.055] | 21.6 µM
O=C(/C=C/c1ccco1)Nc1ccc(OCC(=O)N2CCOCC2)cc1 [A9.056] | 21.9 µM
CCOC(=O)c1c(C)oc2c1c1c(c3ccccc32)OCN(C2CCS(=O)(=O)C2)C1 (centres unmarked) [A9.057] | 22.3 µM
O=C(N/N=C/c1ccco1)c1ccc(=O)[nH]n1 [A9.058] | 22.4 µM
Cn1nc(-c2cccs2)nc2c(=O)n(C)c(=O)nc1-2 [A9.059] | 25 µM

Compound | IC50
CN(C)CCCN1CCN(c2nc(N(C)CC(=O)O)c3ncn(Cc4ccc(C(F)(F)F)cc4)c3n2)CC1 [A9.060] | 23 µM
CCOC(=O)C1=C2SCC(=O)N2C(N)=C(C#N)C1 [A9.061] | 23.1 µM
O=C1c2cccc3c(Br)c([N+](=O)[O-])cc(c23)C(=O)N1c1cccc([N+](=O)[O-])c1 [A9.062] | 23.3 µM
O=C(Nc1ccc(O)cc1C(=O)O)c1cccc(N2C(=O)c3cccc4c([N+](=O)[O-])ccc(c34)C2=O)c1 [A9.063] | 23.6 µM
CCCOC(=O)c1cc(-c2ccc(/C=C3\C(=O)N(CCCO)C(=O)C(C#N)=C3C)o2)ccc1Cl [A9.064] | 23.8 µM
Cn1c(=O)[nH]c2nnc(-c3cccs3)nc2c1=O [A9.065] | 22.6 µM
O=C(N/C(=C\c1ccco1)C(=O)N1CCOCC1)c1ccccc1Cl [A9.066] | 25.5 µM
Cc1ccc(/C=N/NC(=O)c2nnn(-c3nonc3N)c2CN2CCOCC2)o1 [A9.067] | 26.7 µM
O=C(NC(Sc1ccncn1)C(=O)c1ccccc1)c1ccccc1 (centres unmarked) [A9.068] | 26.9 µM
Cc1ccc(Cn2c(SCCC(=O)O)nc3c2c(=O)n(C)c(=O)n3C)cc1 [A9.070] | 28 µM
COC(=O)c1ccccc1-c1ccc(/C=C2\C(=O)N(C)C(=O)C(C#N)=C2C)o1 [A9.071] | 28.1 µM
CC1=C(C#N)C(=O)N(CC(C)O)C(=O)/C1=C/c1ccc(-c2cccc(Cl)c2C)o1 (centres unmarked) [A9.072] | 28.6 µM
Cc1ccc(C(=O)N/C(=C\c2ccco2)C(=O)N2CCOCC2)cc1C [A9.073] | 28.8 µM
CCCCCCCSc1nnc2c(n1)OC(C(=O)c1ccccc1)=Nc1ccccc1-2 [A9.074] | 28.9 µM
O=C(C1c2ccccc2Oc2ccccc21)n1cc(Cl)cn1 [A9.075] | 29.1 µM
C=CCN1C(=O)C(C#N)=C(C)/C(=C\c2ccc(-c3cc(C)c(C)cc3[N+](=O)[O-])o2)C1=O [A9.076] | 29.3 µM
O=c1[nH]cc([N+](=O)[O-])cc1C(F)(F)F [A9.077] | 29.9 µM
CCOC(=O)C(C#N)c1c([N+](=O)[O-])c(=O)n(-c2ccccc2)c2ccccc12 (centres unmarked) [A9.078] | 30 µM
O=C(N/N=C\c1ccco1)c1cnccn1 [A9.079] | 30.1 µM
CC1=C(C#N)C(=O)N=C(O)/C1=C\c1ccc(-c2ccc(Cl)cc2Cl)o1 [A9.080] | 30.3 µM
NC(=O)C1CCN(C(=O)/C(=C/c2ccco2)NC(=O)c2ccccc2)CC1 [A9.081] | 30.5 µM
CCc1c(C)nc2c(OC)cccc2c1SCC(=O)O [A9.082] | 31.1 µM
CCCOC(=O)c1cc(-c2ccc(/C=C3/C(=O)N(CC(C)O)C(=O)C(C#N)=C3C)o2)ccc1Cl (centres unmarked) [A9.083] | 32 µM
Nc1nc2nc(-c3ccco3)cc(C(F)(F)F)n2n1 [A9.084] | 32.1 µM
CC1=C(C#N)C(O)=NC(=O)/C1=C/c1ccc(-c2ccc(Cl)cc2Cl)o1 [A9.085] | 32.4 µM
CCOc1cccc(/C=N/NC(=O)C2=C(C)Nc3ccccc3S2)c1O [A9.086] | 33.2 µM

Reference: patent US20070037752A1, “Novel alanyl-amino peptidase inhibitors for functionally influencing different cells and treating immunological, inflammatory, neuronal, and other diseases” (priority 2003, published 2007)
